Test results as given in patent US20100010002A1, “ANTICANCER USE OF CAFFEIC ACID AND ITS DERIVATIVES” (Piramal Life Sciences Limited, priority 2006, published 2010).
Like-named read-outs stand apart in the source and are kept apart here.

Tests used:
[1] = molecular target: T1, Ba/F3 Bcr-Abl/F359V (Homo sapiens, UniProt P00519, F359V, cells depend on it); experiment: CCK-8 assay, Ba/F3 Bcr-Abl/F359V; format: cell-based; conditions: mouse, 72 h
T1 construct: fused on or other part: P11274 (Breakpoint cluster region protein)

[2] = molecular target: T2, Ba/F3 Bcr-Abl/H396P (Homo sapiens, UniProt P00519, H396P, cells depend on it); experiment: CCK-8 assay, Ba/F3 Bcr-Abl/H396P; format: cell-based; conditions: mouse, 72 h
T2 construct: fused on or other part: P11274 (Breakpoint cluster region protein)

[3] = molecular target: T3, p210^bcr-abl tyrosine kinase (Homo sapiens, UniProt P00519); experiment: Bcr-abl kinase assay: autophosphorylation after immunoprecipitation from treated K-562 cells; format: cell-based; conditions: K-562 cells treated at IC50 and 3×IC50 for 24 h
T3 construct: immunoprecipitation of p210^bcr-abl tyrosine kinase from K-562 cell lysate; BCR (natural N-terminal fusion partner of the p210 BCR-ABL oncoprotein); endogenous in cells; host or cells: K-562 (human leukemic cell line); the other entry of the earlier key: BCR (P11274, Breakpoint cluster region protein)
Procedure: To study inhibition of autophosphorylation of Bcr-abl. Study was carried out by immunoprecipitation of p210^bcr-abl tyrosine kinase from K-562 cell lysate, followed by kinase enzyme assay. The reaction mixture was subjected to SDS-PAGE followed by autoradiography.
To check for the inhibition of autophosphorylation of p210^bcr-abl tyrosine kinase by compounds of the present invention, K-562 cells which express wild type Bcr-abl were used. […] Cells were washed with PBS solution and lysed using lysis buffer (CelLytic M Cell Lysis reagent, Sigma Aldrich, USA) for 2-3 h in cold conditions. Protein was estimated by Bradford method (Bradford reagent, Sigma Aldrich, USA). For immunoprecipitation equal amount of protein is taken from all samples. A p210^bcr-abl protein was immunoprecipitated using polyclonal anti-c-abl antibody (Santa Cruz Biotechnologies, USA) followed by incubation at 4° C. overnight with Protein A-Sepharose. […]
Kinase reaction was performed using 0.5 μCi (γ^32P)-adenosine triphosphate per reaction and incubated for 30 minutes at room temperature (25° C.). […] Autophosphorylation reaction products are resolved on SDS-PAGE and detected by autoradiography.

[4] = molecular target: T4, Ba/F3 Bcr-Abl/M244V (Homo sapiens, UniProt P00519, M244V, cells depend on it); experiment: CCK-8 assay, Ba/F3 Bcr-Abl/M244V; format: cell-based; conditions: mouse, 72 h
T4 construct: fused on or other part: P11274 (Breakpoint cluster region protein)

[5] = molecular target: T5, Ba/F3 Bcr-Abl/H396R (Homo sapiens, UniProt P00519, H396R, cells depend on it); experiment: CCK-8 assay, Ba/F3 Bcr-Abl/H396R; format: cell-based; conditions: mouse, 72 h
T5 construct: fused on or other part: P11274 (Breakpoint cluster region protein)

[6] = molecular target: T6, Ba/F3 Bcr-Abl/Q252H (Homo sapiens, UniProt P00519, Q252H, cells depend on it); experiment: CCK-8 assay, Ba/F3 Bcr-Abl/Q252H; format: cell-based; conditions: mouse, 72 h
T6 construct: fused on or other part: P11274 (Breakpoint cluster region protein)

[7] = molecular target: T7, Ba/F3 Bcr-Abl/WT (Homo sapiens, UniProt P00519); experiment: CCK-8 assay, Ba/F3 Bcr-Abl/WT; format: cell-based; conditions: CCK-8, 72 h, imatinib mesylate sensitive; read-out: Inhibitory concentration (IC50), Ba/F3 Bcr-Abl/WT
T7 construct: fused on or other part: P11274 (Breakpoint cluster region protein)
Excerpt: (§1) The cell lines described in Table 3 were used to test the antiproliferative activity of test compounds.
(§2) Cell Counting Kit-8 (CCK-8) allows very convenient assay by utilizing Dojindo's highly water-soluble tetrazolium salt. CCK-8, being nonradioactive, allows sensitive colorimetric assay for the determination of number of viable cells in cell proliferation and cytotoxicity assays. The amount of the formazan dye generated by dehydrogenases in cells is directly proportional to the number of living cells. Thus, the CCK-8 assay can also be substituted for the H^3-Thymidine incorporation assay.
(§3) Plates were further incubated at 37° C., 5% CO2 incubator for 72 h. 10 μl of the CCK-8 solution was added to each well and plate was incubated for 1-4 h in the incubator. Measured the absorbance at 450 nm using a microplate reader.
(§4) A. The percent inhibition and IC50 were calculated in comparison with control values.

[8] = molecular target: T8, Ba/F3 Bcr-Abl/E255K (Homo sapiens, UniProt P00519, E255K, cells depend on it); experiment: CCK-8 assay, Ba/F3 Bcr-Abl/E255K; format: cell-based; conditions: mouse, 72 h
T8 construct: fused on or other part: P11274 (Breakpoint cluster region protein)

[9] = molecular target: T9, Ba/F3 Bcr-Abl/Y253F (Homo sapiens, UniProt P00519, Y253F, cells depend on it); experiment: CCK-8 assay, Ba/F3 Bcr-Abl/Y253F; format: cell-based; conditions: mouse, 72 h
T9 construct: fused on or other part: P11274 (Breakpoint cluster region protein)

[10] = tested on: K-562-R; experiment: 3H-Thymidine uptake cell proliferation assay, K-562-R; format: cell-based; conditions: Homo sapiens, 72 h incubation, K-562-R (GLEEVEC resistant), read-out: Antiproliferative activity IC50, K-562-R
Procedure: (§5) ^3H-Thymidine uptake assay: ^3H-Thymidine-incorporation is directly proportional to the number of dividing cells in culture.
(§6) Exponentially growing cultures were subjected to different concentrations of test compounds and standard as given below.
(§7) Cells were seeded at a density of 3×10^3 to 5×10^3 per well (in 0.180 mL) in transparent 96 well tissue culture plate (NUNC, USA) and were allowed to incubate at 37° C. in 5% carbon dioxide incubator for 2-6 h. Test compounds were diluted in medium (RPMI1640 with 10% FBS) at various concentrations, and 0.02 mL of 10× stocks were added to each well in triplicate. Plates were incubated at 37° C. in 5% carbon dioxide incubator for 72 h, with an intermittent microscopic observation every 24 h.
(§8) After 72 h incubation, the plate was centrifuged at 1000 rpm for 10 mins in a plate centrifuge. Supernatant was carefully aspirated and ^3H-Thymidine was added to all wells at a concentration of 0.5 μCi/well in 0.1 mL complete medium. Plates were further incubated at 37° C. in 5% carbon dioxide incubator for 6-14 h.
(§9) The filter plate was dried completely at 60° C. for 1 h, or overnight (16 h) at room temperature (25° C.). […] The plate was sealed from the top, read on scintillation counter (TopCount, Packard), and percent inhibition and IC50 in comparison with control values was calculated.

[11] = molecular target: T10, Ba/F3 Bcr-Abl/M351T (Homo sapiens, UniProt P00519, M351T, cells depend on it); experiment: CCK-8 assay, Ba/F3 Bcr-Abl/M351T; format: cell-based; conditions: mouse, 72 h
T10 construct: fused on or other part: P11274 (Breakpoint cluster region protein)

[12] = molecular target: T11, 32Dcl^Bcr-Abl T315I (Homo sapiens, UniProt P00519, T315I, cells depend on it); experiment: 3H-Thymidine uptake cell proliferation assay, 32Dcl Bcr-Abl T315I; format: cell-based, Mouse; conditions: 72 h incubation, read-out: Antiproliferative activity IC50, 32Dcl^Bcr-Abl T315I
T11 construct: Mouse fibroblast with T315I mutated Bcr-Abl; fused on or other part: P11274 (Breakpoint cluster region protein)
Procedure: as §5, §6, §7, §8, §9

[13] = molecular target: T12, Ba/F3 Bcr-Abl/Y253H (Homo sapiens, UniProt P00519, Y253H, cells depend on it); experiment: CCK-8 assay, Ba/F3 Bcr-Abl/Y253H; format: cell-based; conditions: mouse, 72 h
T12 construct: fused on or other part: P11274 (Breakpoint cluster region protein)

[14] = molecular target: T13, Ba/F3 Bcr-Abl/E255V (Homo sapiens, UniProt P00519, E255V, cells depend on it); experiment: CCK-8 assay, Ba/F3 Bcr-Abl/E255V; format: cell-based; conditions: mouse, 72 h
T13 construct: fused on or other part: P11274 (Breakpoint cluster region protein)

[15] = molecular target: Ba/F3 Bcr-Abl/T315I (Homo sapiens, UniProt P00519, T315I, cells depend on it)
Excerpt: as §1, §2, §3, §4

[16] = tested on: K-562; experiment: 3H-Thymidine uptake cell proliferation assay, K-562; format: cell-based; conditions: Homo sapiens, K562, 72 h incubation, read-out: Antiproliferative activity IC50, K-562
Procedure: as §5, §6, §7, §8, §9

[17] = molecular target: T14, Ba/F3 Bcr-Abl/F317L (Homo sapiens, UniProt P00519, F317L, cells depend on it); experiment: CCK-8 assay, Ba/F3 Bcr-Abl/F317L; format: cell-based; conditions: mouse, 72 h
T14 construct: fused on or other part: P11274 (Breakpoint cluster region protein)

[18] = tested on: K562; experiment: CCK-8 cell proliferation and cytotoxicity assay, K562; format: cell-based, Human; conditions: Homo sapiens, K562, 72 h; read-out: Inhibitory concentration (IC50), K562

With `COC(=O)C=Cc1ccc(O)c(O)c1` [Compound 2, 3-(3,4-Dihydroxy-phenyl)-acrylic acid methyl ester] the GI50 [1] was 18.4 µM, the GI50 [2] was 26.2 µM and the “Inhibition of autophosphorylation of Bcr-abl (band density, autoradiography)” value [3] was “potent Bcr-abl tyrosine kinase inhibitor”. For the same compound, the GI50 [4] was 30.1 µM, the GI50 [5] was 18.8 µM and the GI50 [6] was 15.4 µM. It also gave a GI50 [7] of 7.9 ± 2.1 µM, a GI50 [8] of 15 µM and a GI50 [9] of 17 µM. The IC50 [10] was 23 µM, the GI50 [11] was 16.1 µM and the GI50 [12] was 35 µM. It also gave a GI50 [13] of 14.5 µM, a GI50 [14] of 18.9 µM and a GI50 ([15]; mouse, ba/f3 bcr-abl/t315i, 72 h) of 6.3 µM. The GI50 ([15]; read-out: Inhibitory concentration (IC50), Ba/F3 Bcr-Abl/T315I, CCK-8, 72 h, imatinib mesylate resistant, Table 4) was 3.8 ± 1.9 µM, the IC50 [16] was 13.6 ± 2.3 µM and the GI50 [17] was 23.5 µM. It also gave an IC50 [18] of 13.3 ± 2.1 µM.
